Target: human MAT2A enzyme (Homo sapiens (Human), UniProt P31153)
Assay: In vitro enzymatic inhibition activity assay on MAT2A (PiColorLock phosphate detection)
Type: biochemical
Details: purified human MAT2A 10 nM, ATP 50 μM, L-methionine 100 μM, 6 h at 23° C.; read-out: MAT2A inhibitory activity IC50
Protocol: Enzymatic activity assays of compounds of this patent against MAT2A (to detect half inhibitory concentration IC50 values of the compounds) were performed using the phosphate detection kit PiColorLockTM (ab270004, purchased from Abcam). This method utilized the principle that purified human MAT2A enzyme catalyzes the formation of S-adenosylmethionine (SAM) from L-methionine and ATP to release free phosphate, and used the spectrophotometric method to quantify phosphate, so as to determine the enzymatic activity of MAT2A. Compounds were diluted in a 10-fold gradient starting at 1 mM with 100% DMSO (for a total of 8 concentrations) and 2 μL of each concentration was added to 48 μL of reaction buffer (50 mM Tris-HCl PH 7.5, 50 mM KCl, 10 mM MgCl2, 0.01% Brij-35, 0.01% BSA, 1 mM DTT) and mixed well. The final diluted compound was prepared, and 5 μL of MAT2A enzyme (final concentration of 10 nM), 5 μL of ATP (final concentration of 50 μM), and 5 μL of L-methionine (final concentration of 100 μM) were added to each well of a 384-well plate (#3701, purchased from CORNING). After the 384-well plate was placed in the incubator at 23° C. for 6 h, 5 μL of PiColorLock reagent diluted Accelerator (dilution ratio 1:100) was added to each well, and the reaction was stopped by incubating in the incubator at 23° C. for 5 min. 2 μL of Stabiliser was added, the absorbance was read at 630 nm on BMG CLARIOstar, and the IC50 value of the compound was calculated by using GraphPad Prism software.
Under the conditions of this experiment, the inhibition of MAT2A by test compounds can be expressed as an IC50 value for the inhibition of the level of phosphate production during the enzymatic reaction.

Chain of human MAT2A enzyme (P31153 whole entry): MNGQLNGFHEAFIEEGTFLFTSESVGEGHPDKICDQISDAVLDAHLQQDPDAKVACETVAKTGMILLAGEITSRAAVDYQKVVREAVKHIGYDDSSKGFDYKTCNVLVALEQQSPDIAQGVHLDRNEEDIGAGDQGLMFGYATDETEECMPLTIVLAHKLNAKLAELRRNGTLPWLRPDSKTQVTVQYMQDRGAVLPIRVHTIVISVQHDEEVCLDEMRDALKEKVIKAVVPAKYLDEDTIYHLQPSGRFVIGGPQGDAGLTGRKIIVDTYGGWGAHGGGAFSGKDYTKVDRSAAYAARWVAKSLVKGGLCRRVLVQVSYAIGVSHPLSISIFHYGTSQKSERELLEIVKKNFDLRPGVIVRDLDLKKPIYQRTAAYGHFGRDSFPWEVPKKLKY

Row | Structure (SMILES) | IC50 [nM]
1 | COC(=O)c1c(N)c2ccc(Br)cc2n(-c2ccc(OC)nc2)c1=O [Example 211, methyl 4-amino-7-bromo-1-(6-methoxypyridin-3-yl)-2-oxo-1,2-dihydroquinoline-3-carboxylate] | 1.84
2 | COC(=O)c1c(N)c2ccc(Br)cc2n(-c2ccc3ccncc3c2)c1=O [Example 219, methyl 4-amino-7-bromo-1-(isoquinolin-7-yl)-2-oxo-1,2-dihydroquinoline-3-carboxylate] | 1.87
3 | COC(=O)c1c(N)c2ccc(Br)cc2n(-c2ccc3nccnc3c2)c1=O [Example 220, methyl 4-amino-7-bromo-2-oxo-1-(quinoxalin-6-yl)-1,2-dihydroquinoline-3-carboxylate] | 2.07
4 | COC(=O)c1c(N)c2ccc(I)cc2n(-c2cnc(Cl)cc2C)c1=O [Example 225, methyl 4-amino-1-(6-chloro-4-methylpyridin-3-yl)-7-iodo-2-oxo-1,2-dihydroquinoline-3-carboxylate] | 3.11
5 | COC(=O)c1c(N)c2ccc(I)cc2n(-c2ccc(Cl)c3cnccc23)c1=O [Example 227, methyl 4-amino-1-(8-chloroisoquinolin-5-yl)-7-iodo-2-oxo-1,2-dihydroquinoline-3-carboxylate] | 1.96
6 | COC(=O)c1c(N)c2ccc(Br)nc2n(-c2ccc(N)nc2)c1=O [Example 241, methyl 4-amino-1-(6-aminopyridin-3-yl)-7-bromo-2-oxo-1,2-dihydro-1,8-naphthyridine-3-carboxylate] | 1.42
7 | COC(=O)c1c(N)c2ccc(I)cc2n(-c2ccc3ccncc3c2)c1=O [Example 242, methyl 4-amino-7-iodo-1-(isoquinolin-7-yl)-2-oxo-1,2-dihydroquinoline-3-carboxylate] | 1.26
8 | COC(=O)c1c(N)c2ccc(Br)nc2n(-c2ccc(Cl)nc2C)c1=O [Example 248, methyl 4-amino-7-bromo-1-(6-chloro-2-methylpyridin-3-yl)-2-oxo-1,2-dihydro-1,8-naphthyridine-3-carboxylate] | 1.69
9 | COC(=O)c1c(N)c2ccc(Br)nc2n(-c2cnc(Cl)cc2C)c1=O [Example 249, methyl 4-amino-7-bromo-1-(6-chloro-4-methylpyridin-3-yl)-2-oxo-1,2-dihydro-1,8-naphthyridine-3-carboxylate] | 2.99
10 | CCOC(=O)c1c(N)c2ccc(Br)cc2n(-c2ccc3ncoc3c2)c1=O [Example 257, ethyl 4-amino-1-(benzo[d]oxazol-6-yl)-7-bromo-2-oxo-1,2-dihydroquinoline-3-carboxylate] | 2.09
11 | COC(=O)c1c(N)c2ccc(Br)nc2n(-c2ccc(C)nc2)c1=O [Example 258, methyl 4-amino-7-bromo-1-(6-methylpyridin-3-yl)-2-oxo-1,2-dihydro-1,8-naphthyridine-3-carboxylate] | 1.31
12 | COC(=O)c1c(N)c2ccc(Br)nc2n(-c2ccc(N)cc2)c1=O [Example 263, methyl 4-amino-1-(4-aminophenyl)-7-bromo-2-oxo-1,2-dihydro-1,8-naphthyridine-3-carboxylate] | 1.41
13 | COC(=O)c1c(N)c2ccc(Br)cc2n(-c2ccc3ncoc3c2)c1=O [Example 268, methyl 4-amino-1-(benzo[d]oxazol-6-yl)-7-bromo-2-oxo-1,2-dihydroquinoline-3-carboxylate] | 3.39

Now from value to compound:

Row | IC50 [nM] | Structure (SMILES)
14 | 5.38 | COC(=O)c1c(N)c2ccc(Cl)nc2n(-c2cccc3cnccc23)c1=O [Example 201, methyl 4-amino-7-chloro-1-(isoquinolin-5-yl)-2-oxo-1,2-dihydro-1,8-naphthyridine-3-carboxylate]
15 | 4.62 | COC(=O)c1c(N)c2ccc(C(F)(F)F)nc2n(-c2cnc(Cl)cc2C)c1=O [Example 204, methyl 4-amino-1-(6-chloro-4-methylpyridin-3-yl)-2-oxo-7-(trifluoromethyl)-1,2-dihydro-1,8-naphthyridine-3-carboxylate]
16 | 4.47 | COC(=O)c1c(N)c2ccc(C)cc2n(-c2cccc3cnccc23)c1=O [Example 205, methyl 4-amino-1-(isoquinolin-5-yl)-7-methyl-2-oxo-1,2-dihydroquinoline-3-carboxylate]
17 | 2.83 | COC(=O)c1c(N)c2ccc(C(F)(F)F)cc2n(-c2ccc(OC)nc2)c1=O [Example 212, methyl 4-amino-1-(6-methoxypyridin-3-yl)-2-oxo-7-(trifluoromethyl)-1,2-dihydroquinoline-3-carboxylate]
18 | 2.5 | COC(=O)c1c(N)c2ccc(C(F)(F)F)cc2n(-c2ccc(C)nc2)c1=O [Example 215, methyl 4-amino-1-(6-methylpyridin-3-yl)-2-oxo-7-(trifluoromethyl)-1,2-dihydroquinoline-3-carboxylate]
19 | 2.34 | COC(=O)c1c(N)c2ccc(Br)cc2n(-c2cccc3c(Cl)nccc23)c1=O [Example 216, methyl 4-amino-1-(1-chloroisoquinolin-5-yl)-7-bromo-2-oxo-1,2-dihydroquinoline-3-carboxylate]
20 | 8.38 | COC(=O)c1c(N)c2ccc(Br)cc2n(-c2cccc3c2COC3)c1=O [Example 222, methyl 4-amino-7-bromo-1-(1,3-dihydro-2-benzofuran-4-yl)-2-oxo-1,2-dihydroquinoline-3-carboxylate]
21 | 2.81 | COC(=O)c1c(N)c2ccc(C(F)(F)F)cc2n(-c2ccc3ccncc3c2)c1=O [Example 224, methyl 4-amino-1-(isoquinolin-7-yl)-2-oxo-7-(trifluoromethyl)-1,2-dihydroquinoline-3-carboxylate]
22 | 4.18 | COC(=O)c1c(N)c2ccc(C(F)(F)F)cc2n(-c2cccc3[nH]ccc23)c1=O [Example 229, methyl 4-amino-1-(1H-indol-4-yl)-2-oxo-7-(trifluoromethyl)-1,2-dihydroquinoline-3-carboxylate]
23 | 2.36 | COC(=O)c1c(N)c2ccc(Br)cc2n(-c2cccc3c(C)nccc23)c1=O [Example 231, methyl 4-amino-1-(1-methylisoquinolin-5-yl)-7-bromo-2-oxo-1,2-dihydroquinoline-3-carboxylate]
24 | 1.64 | COC(=O)c1c(N)c2ccc(C(F)(F)F)cc2n(-c2ccc(N)cc2C)c1=O [Example 237, methyl 4-amino-1-(4-amino-2-methylphenyl)-2-oxo-7-(trifluoromethyl)-1,2-dihydroquinoline-3-carboxylate]
25 | 6.06 | COC(=O)c1c(N)c2ccc(Br)cc2n(-c2ccccc2N)c1=O [Example 250, methyl 4-amino-1-(2-aminophenyl)-7-bromo-2-oxo-1,2-dihydroquinoline-3-carboxylate]
26 | 1.76 | COC(=O)c1c(N)c2ccc(C(F)(F)F)cc2n(-c2ccc(C)c(N)c2)c1=O [Example 253, methyl 4-amino-1-(3-amino-4-methylphenyl)-2-oxo-7-(trifluoromethyl)-1,2-dihydroquinoline-3-carboxylate]
27 | 1.08 | COC(=O)c1c(N)c2ccc(Br)cc2n(-c2ccc(N)cc2F)c1=O [Example 259, methyl 4-amino-1-(4-amino-2-fluorophenyl)-7-bromo-2-oxo-1,2-dihydro quinoline-3-carboxylate]
28 | 7.38 | COC(=O)c1c(N)c2ccc(C(F)(F)F)cc2n(-c2cccc3c[nH]nc23)c1=O [Example 267, methyl 4-amino-1-(2H-indazol-7-yl)-2-oxo-7-(trifluoromethyl)-1,2-dihydroquinoline-3-carboxylate]
